Where two headings read alike, the source gives them in different places.
Test system: LNCaP cells expressing ARR2PB-FireflyLuc and CMV-RenillaLuc
Test: LNCaP ARR2PB-FireflyLuc reporter assay, antagonist mode;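 also: IC50 bins in nM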
Assay type: cell-based
Details: +0.5 nM DHT, 48 h at 37° C., read-out: LNCap Antagonist Archive: IC50
Description: LNCaP cells expressing ARR2PB-FireflyLuc and CMV-RenillaLuc were treated with indicated concentrations of test compounds, enzalutamide (negative control), or DHT (positive control)+/−0.5 nM DHT for 48 h at 37° C. Fluorescent signals were read with the ImageXpress Micro Confocal System. Remaining activity (antagonist mode) was calculated as % Remaining Activity=100×[(ReadSample−LCave)/(HCave−LCave)] where HC is cells treated with 0.5 nM DHT only and LC is cells treated with 10 uM enzalutamide+0.5 nM DHT. Activation (agonist mode) was calculated as % Activation=100×[(ReadSample−LCave)/(HCave−LCave)] where HO is cells treated with 1 uM DHT and LC is cells treated with DMSO. Dose response curves and IC50 values were calculated using non-linear regression analysis in XLfit.
The designation “A” indicates an IC50 value of >10 μM, “B” indicates an IC50 value between 1 μM and 10 μM; “C” indicates an IC50 value between 100 nM and 1 μM; and “D” indicates an IC50 value of less than 100 nM.

CN(C(=O)c1cc2ccnc(Cl)c2[nH]1)C12CC(F)(C1)C2 [Example 98, 7-chloro-N-[3-fluorobicyclo[1.1.1]pentan-1-yl]-N-methyl-1H-pyrrolo[2,3-c]pyridine-2-carboxamide] gave an IC50 (Homo sapiens, LNCaP, 48 h) of 100 to 1000 nM.

With O=C(NC12CC(F)(C1)C2)c1cc2ccnc(Cl)c2[nH]1 [Example 99, 7-chloro-N-[3-fluorobicyclo[1.1.1]pentan-1-yl]-1H-pyrrolo[2,3-c]pyridine-2-carboxamide] the IC50 (Homo sapiens, LNCaP, 48 h) was 1000 to 10000 nM.

In the case of O=C(NC1CC(F)(F)C1)c1cc2ccnc(Cl)c2[nH]1 [Example 100, 7-chloro-N-(3,3-difluorocyclobutyl)-1H-pyrrolo[2,3-c]pyridine-2-carboxamide], the IC50 (Homo sapiens, LNCaP, 48 h) is reported as 100 to 1000 nM.

CN(C(=O)c1cc2ccnc(Cl)c2[nH]1)C1CC(F)(F)C1 [Example 101, 7-chloro-N-(3,3-difluorocyclobutyl)-N-methyl-1H-pyrrolo[2,3-c]pyridine-2-carboxamide] gave an IC50 (Homo sapiens, LNCaP, 48 h) of 1000 to 10000 nM.

Molecule Cc1c(C(=O)NC23CC(C2)C3)[nH]c2c(Cl)cccc12 [Example 102, N-[bicyclo[1.1.1]pentan-1-yl]-7-chloro-3-methyl-1H-indole-2-carboxamide] has an IC50 (Homo sapiens, LNCaP, 48 h) of 100 to 1000 nM.

Molecule O=C(NC12CC(C1)C2)c1cc2ccncc2[nH]1 [Example 103, N-[bicyclo[1.1.1]pentan-1-yl]-1H-pyrrolo[2,3-c]pyridine-2-carboxamide] has an IC50 (Homo sapiens, LNCaP, 48 h) greater than 10000 nM.

Molecule Cc1c(C(=O)N(C)C23CC(C2)C3)[nH]c2c(Cl)cccc12 [Example 104, N-[bicyclo[1.1.1]pentan-1-yl]-7-chloro-N,3-dimethyl-1H-indole-2-carboxamide] has an IC50 (Homo sapiens, LNCaP, 48 h) greater than 10000 nM.

In the case of O=C(NC12CC(C1)C2)c1[nH]c2c(Cl)cccc2c1C1CC1 [Example 105, N-[bicyclo[1.1.1]pentan-1-yl]-7-chloro-3-cyclopropyl-1H-indole-2-carboxamide], the IC50 (Homo sapiens, LNCaP, 48 h) is reported as 1000 to 10000 nM.

O=C(NC12CC(C1)C2)c1[nH]c2c(Cl)cccc2c1Cl [Example 106, N-[bicyclo[1.1.1]pentan-1-yl]-3,7-dichloro-1H-indole-2-carboxamide] showed an IC50 (Homo sapiens, LNCaP, 48 h) of 1000 to 10000 nM.

Molecule Cn1ccc(-c2c(C(=O)NC34CC(C3)C4)[nH]c3c(Cl)cccc23)n1 [Example 107, N-[bicyclo[1.1.1]pentan-1-yl]-7-chloro-3-(1-methylpyrazol-3-yl)-1H-indole-2-carboxamide] has an IC50 (Homo sapiens, LNCaP, 48 h) greater than 10000 nM.

O=C(NC12CC(C1)C2)c1[nH]c2c(Cl)cccc2c1-c1ccccc1 [Example 108, N-[bicyclo[1.1.1]pentan-1-yl]-7-chloro-3-phenyl-1H-indole-2-carboxamide] was tested, and the IC50 (Homo sapiens, LNCaP, 48 h) was 1000 to 10000 nM.

Work on Cc1c(C(=O)NC23CC(F)(C2)C3)[nH]c2c(Cl)cccc12 [Example 109, 7-chloro-N-[3-fluorobicyclo[1.1.1]pentan-1-yl]-3-methyl-1H-indole-2-carboxamide] yielded an IC50 (Homo sapiens, LNCaP, 48 h) of 100 to 1000 nM.

Work on Cn1c(C(=O)NC23CC(F)(C2)C3)cc2ccnc(Cl)c21 [Example 110, 7-chloro-N-[3-fluorobicyclo[1.1.1]pentan-1-yl]-1-methylpyrrolo[2,3-c]pyridine-2-carboxamide] yielded an IC50 (Homo sapiens, LNCaP, 48 h) of 100 to 1000 nM.

CCn1c(C(=O)NC23CC(F)(C2)C3)cc2ccnc(Cl)c21 [Example 111, 7-chloro-1-ethyl-N-[3-fluorobicyclo[1.1.1]pentan-1-yl]pyrrolo[2,3-c]pyridine-2-carboxamide] showed an IC50 (Homo sapiens, LNCaP, 48 h) of less than 100 nM.

Molecule O=C(NC12CC(F)(C1)C2)c1cc2ccnc(Cl)c2n1CC1CC1 [Example 113, 7-chloro-1-(cyclopropylmethyl)-N-{3-fluorobicyclo[1.1.1]pentan-1-yl}pyrrolo[2,3-c]pyridine-2-carboxamide] has an IC50 (Homo sapiens, LNCaP, 48 h) of 100 to 1000 nM.

Cn1c(C(=O)NC23CC(F)(C2)C3)cc2cccc(Cl)c21 [Example 114, 7-chloro-N-{3-fluorobicyclo[1.1.1]pentan-1-yl}-1-methylindole-2-carboxamide] was tested, and the IC50 (Homo sapiens, LNCaP, 48 h) was less than 100 nM.

O=C(NC12CC(O)(C1)C2)c1cc2cccc(Cl)c2[nH]1 [Example 115, 7-chloro-N-[3-hydroxybicyclo[1.1.1]pentan-1-yl]-1H-indole-2-carboxamide] gave an IC50 (Homo sapiens, LNCaP, 48 h) greater than 10000 nM.

In the case of O=C(NC12CC(O)(C1)C2)c1cc2ccnc(Cl)c2[nH]1 [Example 116, 7-chloro-N-{3-hydroxybicyclo[1.1.1]pentan-1-yl}-1H-pyrrolo[2,3-c]pyridine-2-carboxamide], the IC50 (Homo sapiens, LNCaP, 48 h) is reported as greater than 10000 nM.

For CCN(C(=O)c1cc2ccnc(Cl)c2[nH]1)C12CC(F)(C1)C2 [Example 117, 7-chloro-N-ethyl-N-{3-fluorobicyclo[1.1.1]pentan-1-yl}-1H-pyrrolo[2,3-c]pyridine-2-carboxamide], the IC50 (Homo sapiens, LNCaP, 48 h) was 100 to 1000 nM.

Molecule COc1nccc2cc(C(=O)NC34CC(F)(C3)C4)n(C)c12 [Example 118, N-{3-fluorobicyclo[1.1.1]pentan-1-yl}-7-methoxy-1-methylpyrrolo[2,3-c]pyridine-2-carboxamide] has an IC50 (Homo sapiens, LNCaP, 48 h) of 1000 to 10000 nM.

With Cn1c(C(=O)NC23CC(F)(C2)C3)cc2ccnc(OC3CC3)c21 [Example 119, 7-cyclopropoxy-N-{3-fluorobicyclo[1.1.1]pentan-1-yl}-1-methylpyrrolo[2,3-c]pyridine-2-carboxamide] the IC50 (Homo sapiens, LNCaP, 48 h) was greater than 10000 nM.

Cn1c(C(=O)NC23CC(F)(C2)C3)cc2ccnc(C3CC3)c21 [Example 120, 7-cyclopropyl-N-{3-fluorobicyclo[1.1.1]pentan-1-yl}-1-methylpyrrolo[2,3-c]pyridine-2-carboxamide] was tested, and the IC50 (Homo sapiens, LNCaP, 48 h) was 1000 to 10000 nM.

O=C(NC12CC(F)(C1)C2)c1cc2ccnc(OC3CC3)c2[nH]1 [Example 122, 7-cyclopropoxy-N-{3-fluorobicyclo[1.1.1]pentan-1-yl}-1H-pyrrolo[2,3-c]pyridine-2-carboxamide] showed an IC50 (Homo sapiens, LNCaP, 48 h) greater than 10000 nM.

With CNc1nccc2cc(C(=O)NC34CC(F)(C3)C4)n(C)c12 [Example 124, N-{3-fluorobicyclo[1.1.1]pentan-1-yl}-1-methyl-7-(methylamino)pyrrolo[2,3-c]pyridine-2-carboxamide] the IC50 (Homo sapiens, LNCaP, 48 h) was greater than 10000 nM.

Molecule CN(C)c1nccc2cc(C(=O)NC34CC(F)(C3)C4)n(C)c12 [Example 125, 7-(dimethylamino)-N-{3-fluorobicyclo[1.1.1]pentan-1-yl}-1-methylpyrrolo[2,3-c]pyridine-2-carboxamide] has an IC50 (Homo sapiens, LNCaP, 48 h) of 1000 to 10000 nM.

Work on CN(C(=O)c1cc2ccnc(OC3CC3)c2[nH]1)C12CC(F)(C1)C2 [Example 126, 7-cyclopropoxy-N-{3-fluorobicyclo[1.1.1]pentan-1-yl}-N-methyl-1H-pyrrolo[2,3-c]pyridine-2-carboxamide] yielded an IC50 (Homo sapiens, LNCaP, 48 h) greater than 10000 nM.

Molecule CN(C(=O)c1cc2ccnc(Cl)c2n1C)C12CC(F)(C1)C2 [Example 128, 7-chloro-N-{3-fluorobicyclo[1.1.1]pentan-1-yl}-N,1-dimethylpyrrolo[2,3-c]pyridine-2-carboxamide] has an IC50 of 100 to 1000 nM and an IC50 (Homo sapiens, LNCaP, 48 h) of less than 100 nM.

Cc1c(C(=O)NC23CC(F)(C2)C3)n(C)c2c(Cl)nccc12 [Example 129, 7-chloro-N-{3-fluorobicyclo[1.1.1]pentan-1-yl}-1,3-dimethylpyrrolo[2,3-c]pyridine-2-carboxamide] gave an IC50 (Homo sapiens, LNCaP, 48 h) greater than 10000 nM.

With Cc1nccc2cc(C(=O)NC34CC(F)(C3)C4)n(C)c12 [Example 130, N-{3-fluorobicyclo[1.1.1]pentan-1-yl}-1,7-dimethylpyrrolo[2,3-c]pyridine-2-carboxamide] the IC50 (Homo sapiens, LNCaP, 48 h) was 1000 to 10000 nM.

Molecule Cn1c(C(=O)NC23CC(F)(C2)C3)cc2ccnc(C#N)c21 [Example 131, 7-cyano-N-{3-fluorobicyclo[1.1.1]pentan-1-yl}-1-methylpyrrolo[2,3-c]pyridine-2-carboxamide] has an IC50 (Homo sapiens, LNCaP, 48 h) of 100 to 1000 nM.

Cc1nccc2cc(C(=O)N(C)C34CC(F)(C3)C4)n(C)c12 [Example 132, N-{3-fluorobicyclo[1.1.1]pentan-1-yl}-N,1,7-trimethylpyrrolo[2,3-c]pyridine-2-carboxamide] was tested, and the IC50 (Homo sapiens, LNCaP, 48 h) was 1000 to 10000 nM.

Molecule CN(C(=O)c1cc2ccnc(C#N)c2n1C)C12CC(F)(C1)C2 [Example 133, 7-cyano-N-{3-fluorobicyclo[1.1.1]pentan-1-yl}-N,1-dimethylpyrrolo[2,3-c]pyridine-2-carboxamide] has an IC50 (Homo sapiens, LNCaP, 48 h) of 100 to 1000 nM.

With CC(C)N(C)C(=O)c1cc2ccnc(Cl)c2n1C [Example 134, 7-chloro-N-isopropyl-N,1-dimethylpyrrolo[2,3-c]pyridine-2-carboxamide] the IC50 (Homo sapiens, LNCaP, 48 h) was 100 to 1000 nM.

With NCCn1c(C(=O)NC23CC(F)(C2)C3)cc2ccnc(Cl)c21 [Example 137, 1-(2-aminoethyl)-7-chloro-N-{3-fluorobicyclo[1.1.1]pentan-1-yl}pyrrolo[2,3-c]pyridine-2-carboxamide] the IC50 (Homo sapiens, LNCaP, 48 h) was greater than 10000 nM.

For O=C(NC12CC(F)(C1)C2)c1cc2ccnc(Cl)c2n1CCO [Example 138, 7-chloro-N-{3-fluorobicyclo[1.1.1]pentan-1-yl}-1-(2-hydroxyethyl)pyrrolo[2,3-c]pyridine-2-carboxamide], the IC50 (Homo sapiens, LNCaP, 48 h) was 1000 to 10000 nM.

COCCn1c(C(=O)NC23CC(F)(C2)C3)cc2ccnc(Cl)c21 [Example 139, 7-chloro-N-{3-fluorobicyclo[1.1.1]pentan-1-yl}-1-(2-methoxyethyl)pyrrolo[2,3-c]pyridine-2-carboxamide] was tested, and the IC50 (Homo sapiens, LNCaP, 48 h) was 1000 to 10000 nM.

Cn1c(C(=O)NC23CC(F)(C2)C3)c(F)c2ccnc(Cl)c21 [Example 140, 7-chloro-3-fluoro-N-{3-fluorobicyclo[1.1.1]pentan-1-yl}-1-methylpyrrolo[2,3-c]pyridine-2-carboxamide] was tested, and the IC50 (Homo sapiens, LNCaP, 48 h) was 100 to 1000 nM.

With O=C(NC12CC(F)(C1)C2)c1cc2ccnc(Cl)c2n1CCN1CCOCC1 [Example 141, 7-chloro-N-{3-fluorobicyclo[1.1.1]pentan-1-yl}-1-[2-(morpholin-4-yl)ethyl]pyrrolo[2,3-c]pyridine-2-carboxamide] the IC50 (Homo sapiens, LNCaP, 48 h) was greater than 10000 nM.
